Experiments:
Assay in all cases: relative viability (nuclei count vs DMSO), 5 days (fraction); higher = more cells survive
LCLC-103H = test system: LCLC-103H
Outline: (§1)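 Relative viability was taken as the ratio of nuclei in treated wells to nuclei in vehicle wells. Lung cancer cell lines in 1536-well plates received compounds by pin tool one day after seeding, either one drug alone or a fixed anchor-drug dose plus five library-drug doses (not always all listed) in √10 steps. Nuclei were counted on 4× images after 5 days of treatment, and values are medians of duplicate plates.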

NCI-H1944 = test system: NCI-H1944
Outline: as §1

NCI-H2126 = test system: NCI-H2126
Outline: as §1

SK-LU-1 = test system: SK-LU-1
Outline: as §1

ChaGo-K-1 = test system: ChaGo-K-1
Outline: as §1

NCI-H1395 = test system: NCI-H1395
Outline: as §1

ABC-1 = test system: ABC-1
Outline: as §1

LXF-289 = test system: LXF-289
Outline: as §1

NCI-H322M = test system: NCI-H322M
Outline: as §1

NCI-H1666 = test system: NCI-H1666
Outline: as §1

RERF-LC-KJ = test system: RERF-LC-KJ
Outline: as §1

NCI-H358 = test system: NCI-H358
Outline: as §1

LU99A = test system: LU99A
Outline: as §1

NCI-H1792 = test system: NCI-H1792
Outline: as §1

CAL-12T = test system: CAL-12T
Outline: as §1

HCC-44 = test system: HCC-44
Outline: as §1

NCI-H520 = test system: NCI-H520
Outline: as §1

HCC-827 = test system: HCC-827
Outline: as §1

NCI-H3122 = test system: NCI-H3122
Outline: as §1

NCI-H1793 = test system: NCI-H1793
Outline: as §1

NCI-H1755 = test system: NCI-H1755
Outline: as §1

NCI-H2347 = test system: NCI-H2347
Outline: as §1

Q: What does the source list for Cc1cn(-c2cc(NC(=O)c3ccc(C)c(Nc4nccc(-c5cccnc5)n4)c3)cc(C(F)(F)F)c2)cn1 [Nilotinib] + CC(=O)c1c(C)c2cnc(Nc3ccc(N4CCNCC4)cn3)nc2n(C2CCCC2)c1=O [Palbociclib] (partner 0.5 µM)?
A: relative viability (LCLC-103H; first compound 0.001 µM): 0.425; relative viability (LCLC-103H; first compound 0.003162 µM): 0.403; relative viability (LCLC-103H; first compound 0.01 µM): 0.46; relative viability (LCLC-103H; first compound 0.03162 µM): 0.489; relative viability (LCLC-103H; first compound 0.1 µM): 0.44; relative viability (NCI-H1944; first compound 0.001 µM): 0.279; relative viability (NCI-H1944; first compound 0.003162 µM): 0.335; relative viability (NCI-H1944; first compound 0.01 µM): 0.372; relative viability (NCI-H1944; first compound 0.03162 µM): 0.365; relative viability (NCI-H1944; first compound 0.1 µM): 0.378; relative viability (NCI-H2126; first compound 0.001 µM): 0.337; relative viability (NCI-H2126; first compound 0.003162 µM): 0.333; relative viability (NCI-H2126; first compound 0.01 µM): 0.382; relative viability (NCI-H2126; first compound 0.03162 µM): 0.321; relative viability (NCI-H2126; first compound 0.1 µM): 0.346; relative viability (SK-LU-1; first compound 0.001 µM): 0.355; relative viability (SK-LU-1; first compound 0.003162 µM): 0.334; relative viability (SK-LU-1; first compound 0.01 µM): 0.405; relative viability (SK-LU-1; first compound 0.03162 µM): 0.311; relative viability (SK-LU-1; first compound 0.1 µM): 0.335; relative viability (ChaGo-K-1; first compound 0.001 µM): 0.898; relative viability (ChaGo-K-1; first compound 0.003162 µM): 1.25; relative viability (ChaGo-K-1; first compound 0.01 µM): 1.06; relative viability (ChaGo-K-1; first compound 0.03162 µM): 0.873; relative viability (ChaGo-K-1; first compound 0.1 µM): 0.894; relative viability (NCI-H1395; first compound 0.001 µM): 0.636; relative viability (NCI-H1395; first compound 0.01 µM): 0.692; relative viability (NCI-H1395; first compound 0.03162 µM): 0.612; relative viability (NCI-H1395; first compound 0.1 µM): 0.599; relative viability (ABC-1; first compound 0.001 µM): 0.634; relative viability (ABC-1; first compound 0.003162 µM): 0.697; relative viability (ABC-1; first compound 0.01 µM): 0.775; relative viability (ABC-1; first compound 0.03162 µM): 0.699; relative viability (ABC-1; first compound 0.1 µM): 0.466; relative viability (LXF-289; first compound 0.001 µM): 0.673; relative viability (LXF-289; first compound 0.003162 µM): 0.771; relative viability (LXF-289; first compound 0.01 µM): 0.666; relative viability (LXF-289; first compound 0.03162 µM): 0.607; relative viability (LXF-289; first compound 0.1 µM): 0.577; relative viability (NCI-H322M; first compound 0.001 µM): 0.512; relative viability (NCI-H322M; first compound 0.003162 µM): 0.461; relative viability (NCI-H322M; first compound 0.01 µM): 0.534; relative viability (NCI-H322M; first compound 0.03162 µM): 0.527; relative viability (NCI-H322M; first compound 0.1 µM): 0.602; relative viability (NCI-H1666; first compound 0.001 µM): 0.62; relative viability (NCI-H1666; first compound 0.003162 µM): 0.673; relative viability (NCI-H1666; first compound 0.01 µM): 0.588; relative viability (NCI-H1666; first compound 0.03162 µM): 0.583; relative viability (NCI-H1666; first compound 0.1 µM): 0.65; relative viability (RERF-LC-KJ; first compound 0.001 µM): 0.965; relative viability (RERF-LC-KJ; first compound 0.003162 µM): 1.11; relative viability (RERF-LC-KJ; first compound 0.01 µM): 1.21; relative viability (RERF-LC-KJ; first compound 0.03162 µM): 0.896; relative viability (RERF-LC-KJ; first compound 0.1 µM): 1.03; relative viability (NCI-H358; first compound 0.001 µM): 0.131; relative viability (NCI-H358; first compound 0.003162 µM): 0.131; relative viability (NCI-H358; first compound 0.01 µM): 0.148; relative viability (NCI-H358; first compound 0.03162 µM): 0.124; relative viability (NCI-H358; first compound 0.1 µM): 0.127; relative viability (LU99A; first compound 0.001 µM): 0.408; relative viability (LU99A; first compound 0.003162 µM): 0.377; relative viability (LU99A; first compound 0.01 µM): 0.402; relative viability (LU99A; first compound 0.03162 µM): 0.44; relative viability (LU99A; first compound 0.1 µM): 0.314; relative viability (NCI-H1792; first compound 0.001 µM): 0.582; relative viability (NCI-H1792; first compound 0.003162 µM): 0.684; relative viability (NCI-H1792; first compound 0.01 µM): 0.732; relative viability (NCI-H1792; first compound 0.1 µM): 0.89; relative viability (CAL-12T; first compound 0.001 µM): 0.593; relative viability (CAL-12T; first compound 0.003162 µM): 0.438; relative viability (CAL-12T; first compound 0.01 µM): 0.473; relative viability (CAL-12T; first compound 0.03162 µM): 0.357; relative viability (CAL-12T; first compound 0.1 µM): 0.299; relative viability (HCC-44; first compound 0.001 µM): 0.911; relative viability (HCC-44; first compound 0.003162 µM): 0.933; relative viability (HCC-44; first compound 0.01 µM): 0.927; relative viability (HCC-44; first compound 0.1 µM): 0.931; relative viability (NCI-H520; first compound 0.001 µM): 0.21; relative viability (NCI-H520; first compound 0.003162 µM): 0.219; relative viability (NCI-H520; first compound 0.01 µM): 0.241; relative viability (NCI-H520; first compound 0.03162 µM): 0.218; relative viability (NCI-H520; first compound 0.1 µM): 0.225; relative viability (HCC-827; first compound 0.001 µM): 0.56; relative viability (HCC-827; first compound 0.003162 µM): 0.451; relative viability (HCC-827; first compound 0.03162 µM): 0.435; relative viability (HCC-827; first compound 0.1 µM): 0.469; relative viability (NCI-H3122; first compound 0.001 µM): 0.0877; relative viability (NCI-H3122; first compound 0.003162 µM): 0.191; relative viability (NCI-H3122; first compound 0.01 µM): 0.243; relative viability (NCI-H3122; first compound 0.03162 µM): 0.198; relative viability (NCI-H3122; first compound 0.1 µM): 0.175; relative viability (NCI-H1793; first compound 0.001 µM): 0.332; relative viability (NCI-H1793; first compound 0.003162 µM): 0.352; relative viability (NCI-H1793; first compound 0.01 µM): 0.307; relative viability (NCI-H1793; first compound 0.03162 µM): 0.281; relative viability (NCI-H1793; first compound 0.1 µM): 0.3; relative viability (NCI-H1755; first compound 0.001 µM): 0.451; relative viability (NCI-H1755; first compound 0.003162 µM): 0.453; relative viability (NCI-H1755; first compound 0.01 µM): 0.436; relative viability (NCI-H1755; first compound 0.03162 µM): 0.468; relative viability (NCI-H1755; first compound 0.1 µM): 0.368; relative viability (NCI-H2347; first compound 0.001 µM): 0.452; relative viability (NCI-H2347; first compound 0.003162 µM): 0.419; relative viability (NCI-H2347; first compound 0.01 µM): 0.474; relative viability (NCI-H2347; first compound 0.03162 µM): 0.43; relative viability (NCI-H2347; first compound 0.1 µM): 0.396
